Laboratory results reported in patent EP0580459B1, “Substituted Phenylimidazolidins, their use as medicaments and their pharmaceutical compositions containing them” (HOECHST MARION ROUSSEL, priority 1992, dated 1994).

Assays:
[1] = system: ornithine décarboxylase rénale; assay: Androgen / anti-androgen activity by assay of renal ornithine decarboxylase in castrated mice given testosterone propionate; format: in vivo, souris mâles SWISS; settings: with testosterone propionate 3 mg/kg s.c., kidneys 20 hours after treatment, relative to controls given testosterone propionate only; for % d'inhibition de l'ODL Test A: Test A: percutaneous route, 1,5 mg/kg in 10 µl
Procedure: 2) Détermination de l'activité androgène ou anti-androgène des produits de l'invention à l'aide du dosage de l'ornithine décarboxylase.
- Protocole de traitement
20 heures après les traitements, les animaux sont sacrifiés, les reins prélevés, puis homogénéisés à 0°C , à l'aide d'un broyeur téflon-verre dans 10 volumes de tampon Tris-HCl 50 mM (pH 7,4) contenant 250 uM de phosphate de pyridoxal, 0,1 mM EDTA, et 5 mM de dithiothreitol. L'homogenat est ensuite centrifugé à 209000 g pendant 30 mn.
A 37°C, l'ornithine décarboxylase rénale transforme un mélange isotopique d'ornithine froide et d'ornithine tritiée en putrescine froide et putrescine tritiée.
La putrescine est ensuite recueillie sur des papiers sélectifs, échangeurs d'ions. Après séchage, l'excès d'ornithine tritiée et froide non transformée est éliminé, par 3 lavages d'ammoniaque 0,1 M. Les papiers sont séchés, puis la radioactivité est comptée après addition de scintillant Aqualite.
Les résultats sont exprimés en fmoles ([…]) de putrescine tritiée formée/heure/mg de protéines.
Test A : les produits sont administrés par voie percutanée à 1,5 mg/kg sous un volume de 10 µl. Test B : les produits sont administrés par voie orale à 1 mg/kg. Test C : les produits sont administrés par voie orale à 3 mg/kg.

récepteur androgène = molecular target: T1, récepteur androgène (Rattus norvegicus, UniProt P15207); assay: Relative binding affinity (ARL) for the androgen receptor: displacement of tritiated testosterone in prostate cytosol; design: species or system rats mâles Sprague. Dawley EOPS; settings: Incubation 24 hours at 0°C; prostate cytosol of castrated rats; ARL=100 (CH)/(CX), testosterone = 100
T1 construct: Des aliquotes du surnageant obtenu (=cytosol), sont incubées 30 minutes et 24 heures à 0°C; from tissue; host or cells: prostate cytosol of castrated male Sprague-Dawley rats
T1 sequence (P15207 1-902): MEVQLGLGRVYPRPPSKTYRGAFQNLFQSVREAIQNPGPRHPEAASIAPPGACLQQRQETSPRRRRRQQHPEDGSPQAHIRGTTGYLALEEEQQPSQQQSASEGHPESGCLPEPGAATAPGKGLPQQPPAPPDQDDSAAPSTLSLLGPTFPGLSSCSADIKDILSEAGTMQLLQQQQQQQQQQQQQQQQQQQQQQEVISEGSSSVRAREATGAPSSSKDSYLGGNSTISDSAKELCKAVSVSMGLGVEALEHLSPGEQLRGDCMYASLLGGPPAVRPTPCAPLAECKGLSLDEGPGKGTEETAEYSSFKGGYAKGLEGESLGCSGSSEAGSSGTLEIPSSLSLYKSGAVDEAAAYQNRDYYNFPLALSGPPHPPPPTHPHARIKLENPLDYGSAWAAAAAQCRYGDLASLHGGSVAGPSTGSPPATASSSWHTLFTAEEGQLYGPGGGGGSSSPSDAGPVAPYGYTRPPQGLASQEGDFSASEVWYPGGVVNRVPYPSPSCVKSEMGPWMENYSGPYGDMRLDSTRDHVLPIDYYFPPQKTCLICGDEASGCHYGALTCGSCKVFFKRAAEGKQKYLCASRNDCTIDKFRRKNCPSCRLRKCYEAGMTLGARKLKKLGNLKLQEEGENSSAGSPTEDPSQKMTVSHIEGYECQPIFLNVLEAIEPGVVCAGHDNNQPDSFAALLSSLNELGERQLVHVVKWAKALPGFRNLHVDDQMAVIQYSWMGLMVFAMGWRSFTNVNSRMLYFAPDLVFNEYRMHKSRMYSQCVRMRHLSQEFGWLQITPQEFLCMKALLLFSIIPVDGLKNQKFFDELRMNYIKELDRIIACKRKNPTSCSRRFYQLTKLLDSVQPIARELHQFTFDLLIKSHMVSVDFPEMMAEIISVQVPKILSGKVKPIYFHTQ
Procedure: 1) Etude de l'affinité des produits de l'invention pour le récepteur androgène
Des rats mâles Sprague. Dawley EOPS de 180-200 g, castrés de 24 heures, sont sacrifiés, les prostates prélevées, pesées et homogénéisées à 0°C à l'aide d'un potter verre-verre, dans une solution tamponnée (Tris lOmM, saccharose 0,25M, PMSF (phénylméthanesulfonylfluoride) 0,1mM, Molybdate de sodium 20mM, HCl pH 7,4; auxquels on ajoute extemporanément 2mM de DTT (DL dithiothreitol), à raison de 1 g de tissu pour 8 ml de tampon.
L'homogénat est ensuite ultracentrifugé à 0°C, 30 minutes à 209 000 g.
Calcul de l'affinité relative de liaison (ARL).
On trace les 2 courbes suivantes : le pourcentage de l'hormone tritiée liée B/T en fonction du logarithme de la concentration de l'hormone de référence froide et B/T en fonction du logarithme de la concentration du produit froid testé. On détermine la droite d'équation I50=(B/Tmax + B/Tmin)/2. B/T max= % de l'hormone tritiée liée pour une incubation de cette hormone tritiée à la concentration (T). B/T min= % de l'hormone tritiée liée pour une incubation de cette hormone tritiée à la concentration (T) en présence d'un grand excès d'hormone froide (2500.10^-9M) .
Les intersections de la droite I50 et des courbes, permettent d'évaluer les concentrations de l'hormone de référence froide (CH) et du produit froid testé (CX) qui inhibent de 50 % la liaison de l'hormone tritiée sur le récepteur.

Row | Compound | % d'inhibition de l'ODL Test A [1] | % d'inhibition de l'ODL Test B ([1]; Test B: oral route, 1 mg/kg) | ARL (affinité relative de liaison) (récepteur androgène) | % d'inhibition de l'ODL Test C ([1]; Test C: oral route, 3 mg/kg)
1 | CC1(C)C(=O)N(c2ccc(C#N)c(C(F)(F)F)c2)C(=O)N1CCCCO [Exemple 1, 4-(4,4-diméthyl 2,5-dioxo 3-(4-hydroxybutyl) 1-imidazolidinyl) 2-(trifluorométhyl) benzonitrile] | 40% | 36% | 31 | 
2 | CC1(C)C(=O)N(c2ccc(C#N)c(C(F)(F)F)c2)C(=S)N1CCCCO [Exemple 4, 4-(4,4-diméthyl 3-(4-hydroxybutyl) 5-oxo 2-thioxo 1-imidazolidinyl) 2-(trifluorométhyl) benzonitrile] | 78% |  | 300 | 
3 | CC(C)N1C(=S)N(c2ccc(C#N)c(C(F)(F)F)c2)C(=O)C1(C)C [Exemple 6, 4-(4,4-diméthyl 3-(1-méthyléthyl) 5-oxo 2-thioxo 1-imidazolidinyl) 2-(trifluorométhyl) benzonitrile] | 35% |  | 28 | 
4 | CC1(C)C(=O)N(c2ccc(C#N)c(C(F)(F)F)c2)C(=S)N1CCCO [Exemple 3, 4-(4,4-diméthyl 3-(3-hydroxypropyl) 5-oxo 2-thioxo 1-imidazolidinyl) 2-(trifluorométhyl) benzonitrile] | 41% |  |  | 
5 | COCCN1C(=S)N(c2ccc(C#N)c(C(F)(F)F)c2)C(=O)C1(C)C [Exemple 5, 4-(4,4-diméthyl 3-(2-méthoxyéthyl) 5-oxo 2-thioxo 1-imidazolidinyl) 2-(trifluorométhyl) benzonitrile] | 62% |  | 81 | 
6 | CC1(C)C(=O)N(c2ccc(C#N)c(C(F)(F)F)c2)C(=S)N1CCO [Exemple 2, 4-(4,4-diméthyl 3-(2-hydroxyéthyl) 5-oxo 2-thioxo 1-imidazolidinyl) 2-(trifluorométhyl) benzonitrile] | 32% |  | 163 | 67%
